Measured values reported in ChEMBL document CHEMBL5291721, “A preclinical secondary pharmacology resource illuminates target-adverse drug reaction associations of marketed drugs” (Nat Commun, 2023).

How the values were obtained:
[1] = biological target: Gamma-aminobutyric acid receptor subunit alpha-1 (Rattus norvegicus, UniProt P62813)
Estrogen receptor = biological target: T1, Estrogen receptor (Homo sapiens, UniProt P03372)
T1 sequence (P03372 whole entry): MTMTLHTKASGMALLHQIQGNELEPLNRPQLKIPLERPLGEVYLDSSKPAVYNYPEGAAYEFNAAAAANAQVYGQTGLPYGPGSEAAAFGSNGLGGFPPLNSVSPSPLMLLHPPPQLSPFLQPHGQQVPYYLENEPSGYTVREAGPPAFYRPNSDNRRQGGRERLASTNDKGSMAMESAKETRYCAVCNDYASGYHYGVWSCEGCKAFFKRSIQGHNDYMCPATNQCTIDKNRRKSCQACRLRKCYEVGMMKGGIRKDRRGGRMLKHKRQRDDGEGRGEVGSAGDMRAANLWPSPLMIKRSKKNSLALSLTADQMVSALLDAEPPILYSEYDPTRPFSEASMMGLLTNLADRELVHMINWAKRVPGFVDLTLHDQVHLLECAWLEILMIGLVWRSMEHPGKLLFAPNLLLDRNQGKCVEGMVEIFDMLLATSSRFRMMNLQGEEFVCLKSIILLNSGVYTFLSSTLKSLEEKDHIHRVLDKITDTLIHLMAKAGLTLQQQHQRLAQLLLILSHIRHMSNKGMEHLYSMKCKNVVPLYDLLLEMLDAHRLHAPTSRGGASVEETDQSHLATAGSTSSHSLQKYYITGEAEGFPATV

Vasopressin V2 receptor = Vasopressin V2 receptor (Homo sapiens, UniProt P30518)
Vasopressin V2 receptor, sequence (P30518 whole entry): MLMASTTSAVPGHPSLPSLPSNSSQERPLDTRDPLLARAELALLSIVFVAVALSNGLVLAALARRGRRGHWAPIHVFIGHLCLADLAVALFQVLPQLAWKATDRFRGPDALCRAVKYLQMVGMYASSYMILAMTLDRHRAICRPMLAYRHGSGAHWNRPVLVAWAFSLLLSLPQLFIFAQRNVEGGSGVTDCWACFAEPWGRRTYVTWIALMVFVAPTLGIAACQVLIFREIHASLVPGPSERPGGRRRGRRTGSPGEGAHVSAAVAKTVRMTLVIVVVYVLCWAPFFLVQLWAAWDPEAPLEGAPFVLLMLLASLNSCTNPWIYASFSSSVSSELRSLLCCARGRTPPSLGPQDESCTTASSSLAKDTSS

B2 bradykinin receptor = biological target: T2, B2 bradykinin receptor (Homo sapiens, UniProt P30411)
T2 sequence (P30411 whole entry): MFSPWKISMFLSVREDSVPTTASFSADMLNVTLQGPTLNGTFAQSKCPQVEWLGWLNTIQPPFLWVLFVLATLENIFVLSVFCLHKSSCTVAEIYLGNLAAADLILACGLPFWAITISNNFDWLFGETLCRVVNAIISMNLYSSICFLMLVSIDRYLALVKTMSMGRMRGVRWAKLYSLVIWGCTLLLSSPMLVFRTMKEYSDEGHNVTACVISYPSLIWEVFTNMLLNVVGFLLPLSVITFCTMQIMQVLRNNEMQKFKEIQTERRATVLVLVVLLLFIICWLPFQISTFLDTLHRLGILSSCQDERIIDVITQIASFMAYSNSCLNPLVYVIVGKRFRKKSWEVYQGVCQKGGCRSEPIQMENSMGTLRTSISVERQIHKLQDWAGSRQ

[2] = biological target: T3, Corticotropin-releasing factor receptor 1 (Homo sapiens, UniProt P34998)
T3 sequence (P34998 whole entry): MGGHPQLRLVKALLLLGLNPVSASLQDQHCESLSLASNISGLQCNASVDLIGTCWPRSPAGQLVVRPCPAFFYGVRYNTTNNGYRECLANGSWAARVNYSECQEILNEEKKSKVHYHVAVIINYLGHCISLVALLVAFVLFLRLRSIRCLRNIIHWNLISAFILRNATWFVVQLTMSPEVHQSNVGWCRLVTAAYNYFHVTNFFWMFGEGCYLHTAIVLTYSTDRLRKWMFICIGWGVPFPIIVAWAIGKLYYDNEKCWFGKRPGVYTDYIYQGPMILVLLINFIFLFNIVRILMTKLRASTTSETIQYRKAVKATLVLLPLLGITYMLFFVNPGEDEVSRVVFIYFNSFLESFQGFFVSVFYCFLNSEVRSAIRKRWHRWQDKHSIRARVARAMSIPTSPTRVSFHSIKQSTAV

[3] = biological target: T4, 5-hydroxytryptamine receptor 1A (Homo sapiens, UniProt P08908); assay type: functional, cell-based
T4 sequence (P08908 whole entry): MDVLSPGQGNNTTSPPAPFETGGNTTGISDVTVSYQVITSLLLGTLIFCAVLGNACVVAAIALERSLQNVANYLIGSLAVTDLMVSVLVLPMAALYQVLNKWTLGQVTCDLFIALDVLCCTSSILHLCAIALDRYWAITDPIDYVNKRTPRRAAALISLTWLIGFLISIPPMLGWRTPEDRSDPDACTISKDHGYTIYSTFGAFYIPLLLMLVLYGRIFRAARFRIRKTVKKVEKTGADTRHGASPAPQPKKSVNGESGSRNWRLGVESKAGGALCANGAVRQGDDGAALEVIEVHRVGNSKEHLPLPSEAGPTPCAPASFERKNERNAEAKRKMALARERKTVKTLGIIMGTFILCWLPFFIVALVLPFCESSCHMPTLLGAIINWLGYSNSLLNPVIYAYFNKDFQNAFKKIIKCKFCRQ

Motilin receptor = Motilin receptor (Homo sapiens, UniProt O43193)
Motilin receptor, sequence (O43193 whole entry): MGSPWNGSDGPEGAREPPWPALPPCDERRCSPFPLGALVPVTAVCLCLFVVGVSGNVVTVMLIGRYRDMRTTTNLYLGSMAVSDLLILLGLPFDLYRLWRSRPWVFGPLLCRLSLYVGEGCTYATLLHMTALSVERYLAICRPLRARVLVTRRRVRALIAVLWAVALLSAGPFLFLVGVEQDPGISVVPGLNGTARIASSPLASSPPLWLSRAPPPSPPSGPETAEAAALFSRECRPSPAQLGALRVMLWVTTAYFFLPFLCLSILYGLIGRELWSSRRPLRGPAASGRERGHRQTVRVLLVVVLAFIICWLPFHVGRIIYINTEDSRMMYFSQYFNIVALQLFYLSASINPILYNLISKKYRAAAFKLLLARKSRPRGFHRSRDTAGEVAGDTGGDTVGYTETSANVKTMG

Progesterone receptor = biological target: T5, Progesterone receptor (Homo sapiens, UniProt P06401); assay type: functional
T5 sequence (P06401 whole entry): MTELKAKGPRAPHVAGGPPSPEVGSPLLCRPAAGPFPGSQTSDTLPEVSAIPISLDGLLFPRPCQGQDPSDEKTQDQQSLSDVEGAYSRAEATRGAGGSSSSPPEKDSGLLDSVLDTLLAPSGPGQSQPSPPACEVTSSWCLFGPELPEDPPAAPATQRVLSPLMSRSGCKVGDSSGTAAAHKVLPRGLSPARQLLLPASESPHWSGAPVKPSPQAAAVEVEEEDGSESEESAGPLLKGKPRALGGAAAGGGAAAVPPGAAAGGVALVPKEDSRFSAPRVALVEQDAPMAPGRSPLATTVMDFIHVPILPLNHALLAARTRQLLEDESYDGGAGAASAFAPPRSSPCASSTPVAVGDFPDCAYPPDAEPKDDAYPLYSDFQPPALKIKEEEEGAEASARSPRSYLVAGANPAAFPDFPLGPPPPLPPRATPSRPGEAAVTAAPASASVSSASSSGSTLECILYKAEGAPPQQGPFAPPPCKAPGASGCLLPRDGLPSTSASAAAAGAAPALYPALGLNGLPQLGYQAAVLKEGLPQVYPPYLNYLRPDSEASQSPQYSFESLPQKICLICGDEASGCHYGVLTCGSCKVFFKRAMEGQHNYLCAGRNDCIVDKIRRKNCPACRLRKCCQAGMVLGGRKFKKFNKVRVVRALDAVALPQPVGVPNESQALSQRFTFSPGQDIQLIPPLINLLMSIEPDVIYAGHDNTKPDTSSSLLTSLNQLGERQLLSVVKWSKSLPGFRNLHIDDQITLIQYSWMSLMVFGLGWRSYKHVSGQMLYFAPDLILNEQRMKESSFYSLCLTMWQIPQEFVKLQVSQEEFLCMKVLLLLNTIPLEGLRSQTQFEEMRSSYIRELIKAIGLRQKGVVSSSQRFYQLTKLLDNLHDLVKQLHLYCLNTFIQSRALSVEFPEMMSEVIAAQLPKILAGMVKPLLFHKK
Also: assay procedure not described here.

Gamma-aminobutyric acid receptor subunit alpha-1, sequence (P62813 whole entry): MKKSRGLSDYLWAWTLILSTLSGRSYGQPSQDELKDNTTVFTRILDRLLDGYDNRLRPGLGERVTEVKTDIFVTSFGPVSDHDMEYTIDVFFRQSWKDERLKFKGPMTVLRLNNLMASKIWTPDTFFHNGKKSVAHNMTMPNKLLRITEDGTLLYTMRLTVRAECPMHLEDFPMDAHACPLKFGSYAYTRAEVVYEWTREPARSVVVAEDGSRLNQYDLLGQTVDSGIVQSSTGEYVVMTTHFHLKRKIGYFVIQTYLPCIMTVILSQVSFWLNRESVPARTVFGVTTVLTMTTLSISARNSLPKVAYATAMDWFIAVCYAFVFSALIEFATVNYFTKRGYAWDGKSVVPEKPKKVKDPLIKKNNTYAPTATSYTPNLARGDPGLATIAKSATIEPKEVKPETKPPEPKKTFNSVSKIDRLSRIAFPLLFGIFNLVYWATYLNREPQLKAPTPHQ

Structure (SMILES): CN1CCC[C@@H]1Cc1c[nH]c2ccc(CCS(=O)(=O)c3ccccc3)cc12
- AC50 [1]: > 30 µM

Structure (SMILES): COc1nccnc1NS(=O)(=O)c1ccc(N)cc1
- AC50 [1]: > 30 µM

Structure (SMILES): O=C(Nc1cccc2c(=O)cc(-c3nnn[nH]3)oc12)c1ccc(OCCCCc2ccccc2)cc1
- AC50 [1]: > 30 µM

Structure (SMILES): NC(=O)c1nc(F)c[nH]c1=O
- AC50 (Estrogen receptor): > 30 µM
- AC50 [1]: > 30 µM

Structure (SMILES): CC1(C)S[C@@H]2[C@H](NC(=O)[C@H](N)c3ccc(O)cc3)C(=O)N2[C@H]1C(=O)O [AMOXICILLIN]
- AC50 (Vasopressin V2 receptor): > 30 µM
- AC50 (B2 bradykinin receptor): > 30 µM
- AC50 [2]: > 30 µM
- AC50 [3]: > 10 µM
- AC50 (Motilin receptor): > 30 µM
- AC50 (Progesterone receptor): > 30 µM

Structure (SMILES): Cc1ccc([C@@H]2O[C@H](CO)[C@@H](O)[C@H](O)[C@H]2O)cc1Cc1ccc(-c2ccc(F)cc2)s1 [CANAGLIFLOZIN ANHYDROUS]
- AC50 (Estrogen receptor): > 30 µM
- AC50 [1]: > 30 µM

Structure (SMILES): CN(C)CCN(Cc1ccc(Cl)cc1)c1ccccn1 [CHLOROPYRAMINE]
- AC50 [1]: > 30 µM

Structure (SMILES): O=C(O)c1cc(=O)c2ccccc2o1 [CHROMOCARB]
- AC50 (Estrogen receptor): > 30 µM
- AC50 [1]: > 30 µM

Structure (SMILES): Clc1cccc(Cl)c1N=C1NCCN1 [CLONIDINE]
- AC50 (Vasopressin V2 receptor): > 30 µM
- AC50 (B2 bradykinin receptor): > 30 µM
- AC50 [2]: > 30 µM
- AC50 [3]: > 10 µM
- AC50 (Motilin receptor): > 10 µM

Structure (SMILES): N[C@@H](CSSC[C@H](N)C(=O)O)C(=O)O [CYSTINE]
- AC50 [1]: > 30 µM

Structure (SMILES): CN1C[C@H](C(=O)N[C@]2(C)O[C@@]3(O)[C@@H]4CCCN4C(=O)[C@H](Cc4ccccc4)N3C2=O)C[C@@H]2c3cccc4[nH]cc(c34)C[C@H]21 [DIHYDROERGOTAMINE]
- AC50 (Vasopressin V2 receptor): > 30 µM
- AC50 (B2 bradykinin receptor): > 30 µM
- AC50 [2]: > 30 µM
- AC50 (Motilin receptor): > 10 µM

Structure (SMILES): C[C@]12CC[C@@H]3c4ccc(O)cc4CC[C@H]3[C@@H]1CC[C@@H]2OC(=O)CCC1CCCC1 [ESTRADIOL CYPIONATE]
- AC50 (Estrogen receptor): 0.379 µM
- AC50 [1]: > 30 µM

Structure (SMILES): CCC(=O)O[C@@H](O[P@](=O)(CCCCc1ccccc1)CC(=O)N1C[C@H](C2CCCCC2)C[C@H]1C(=O)O)C(C)C [FOSINOPRIL]
- AC50 (Estrogen receptor): > 30 µM
- AC50 [1]: > 30 µM
- AC50 [3]: > 30 µM

Structure (SMILES): CC1(C)O[C@@H]2C[C@H]3[C@@H]4CCC5=CC(=O)CC[C@]5(C)[C@@]4(F)[C@@H](O)C[C@]3(C)[C@]2(C(=O)CCl)O1 [HALCINONIDE]
- AC50 (Estrogen receptor): > 30 µM
- AC50 [1]: > 30 µM
